In one data set the target is T1, 5-HT2C receptors (Rattus norvegicus, UniProt P08909).
T1 construct: Male rats of the Wistar line (Iffa-Credo, France); from tissue; host or cells: whole animal: male Wistar rat (in vivo)
T1 sequence (P08909 33-460): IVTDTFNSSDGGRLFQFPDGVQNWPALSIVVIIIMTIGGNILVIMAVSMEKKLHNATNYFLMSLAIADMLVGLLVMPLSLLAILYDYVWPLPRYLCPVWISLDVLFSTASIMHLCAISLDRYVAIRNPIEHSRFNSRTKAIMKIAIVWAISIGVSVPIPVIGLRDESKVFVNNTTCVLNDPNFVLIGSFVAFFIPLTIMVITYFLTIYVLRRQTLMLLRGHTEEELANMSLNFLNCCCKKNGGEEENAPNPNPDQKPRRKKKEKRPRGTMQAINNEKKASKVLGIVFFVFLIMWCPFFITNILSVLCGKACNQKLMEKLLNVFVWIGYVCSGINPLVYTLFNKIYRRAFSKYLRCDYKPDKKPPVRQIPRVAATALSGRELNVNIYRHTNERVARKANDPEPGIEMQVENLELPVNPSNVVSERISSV
Put plainly: Penile erection test in the rat, erection induced by Ro 60-0175. In kind it is in vivo. The settings on record: for ED50: rat, sc, read-out: ID50 (inhibitory dose50) for inhibition of penile erections induced by Ro 60-0175. As to the method:
Penile Erection Test in the Rat, with Erection Induced by Ro 60-0175 (1.25 mg/kg, s.c.)
This test (Eur. J. Pharma., 1997, 325, 9-12) enables evaluation of the capacity of pharmacological agents to inhibit penile erections induced by the administration of Ro 60-0175, a selective 5-HT2C agonist. Inhibition is thus predictive of an antagonist activity in respect of 5-HT2C receptors. Male rats of the Wistar line (Iffa-Credo, France), weighing 120-140 g on the day of the experiment, are placed individually into plexiglass observation boxes (7.5×18×30 cm) having just been administered the product or its carrier. Thirty minutes later, the animals are administered Ro 60-0175 (1.25 mg/kg, s.c.) and the number of erections achieved in the course of the following 30 minutes is counted.

`COC(=O)C1(C2NCCc3c2[nH]c2ccc(Cl)cc32)CCC1.Cl` (stereo not drawn) had a melting point of 232 to 233 °C.

As for `CCOC(=O)C1(C2NCCc3c2[nH]c2ccc(Cl)cc32)CCC1.Cl` (stereo not drawn) [Example 1, Ethyl 1-(6-chloro-2,3,4,9-tetrahydro-1H-β-carbolin-1-yl)cyclobutanecarboxylate Hydrochloride], on 5-HT2C receptors, the ED50 amounted to 0.9 mg/kg.

In the case of `CCOC(=O)C1(C2NCCc3c2[nH]c2cc(Cl)c(Cl)cc32)CCC1.Cl` (stereo not drawn) [Example 6, Ethyl 1-(6,7-dichloro-2,3,4,9-tetrahydro-1H-β-carbolin-1-yl)cyclobutanecarboxylate Hydrochloride], the ED50 at 5-HT2C receptors was 0.9 mg/kg.

On to `CCOC(=O)C1(C2NCCc3c2[nH]c2ccc(OC)cc32)CCC1.Cl` (stereo not drawn) [Example 7, Ethyl 1-(6-methoxy-2,3,4,9-tetrahydro-1H-β-carbolin-1-yl)cyclobutanecarboxylate Hydrochloride], for which, at 5-HT2C receptors, the ED50 turned out to be 1.1 mg/kg.

As for `CCOC(=O)C1(C2NCCc3c2[nH]c2ccc(Cl)c(Cl)c32)CCC1.Cl` (stereo not drawn) [Example 18, Ethyl 1-(5,6-dichloro-2,3,4,9-tetrahydro-1H-β-carbolin-1-yl)cylobutanecarboxylate Hydrochloride], the “ID50 (inhibitory dose50) for inhibition of penile erections induced by Ro 60-0175” value on 5-HT2C receptors (s.c., male Wistar rats, product given 30 min before Ro 60-0175 (1.25 mg/kg, s.c.), erections counted over following 30 min) was determined as 0.5 mg/kg.

In the case of `CCOC(=O)C1(C2c3[nH]c4ccc(Cl)cc4c3CCN2C(C)=O)CCC1` (stereo not drawn) [Example 79, Ethyl 1-(2-acetyl-6-chloro-2,3,4,9-tetrahydro-1H-β-carbolin-1-yl)cyclobutanecarboxylate], the melting point is 218 to 219 °C.

Values taken from patent US6350757B1, “Beta-carboline compounds” (Les Laboratoires Servier, priority 1999, dated 2002).
